These results are taken from patent publication US20100233156A1, “Treating Central Nervous System Injury with Beta and Gamma Secretase Inhibitors” (GEORGETOWN UNIVERSITY, priority 2009, published 2010).

In one experiment the test system is γ-secretase. In words: Aβ concentrations in DAPT-treated TBI mice, to confirm γ-secretase inhibition. It counts as in vivo, mouse. To be noted: three hours after final drug administration. How it is done:
(§1) The other secretase involved in amyloidogenic processing of APP is γ-secretase, and the pharmacological inhibitor N-[N-(3,5-difluorophenacetyl-L-alanyl)]-S-phenlyglycine t-butyl ester (DAPT) was used to block enzyme activity. […] Each mouse received the initial dose 15 minutes after CCI or sham surgery and then twice daily for 21 days. This dosing regime was implemented because Aβ is known to drop after γ-secretase inhibition before recovering over several hours (Abramowski et al., J. Pharmacol. Exp. Ther. 327:411-24 (2008), El Mouedden et al., Curr. Pharm. Des. 12:671-6 (2006)). To confirm γ-secretase inhibition in DAPT-treated mice, Aβ concentrations were measured. Three hours after final drug administration, Aβ levels were reduced by 25% (13.76±0.8 fmol per mg protein (vehicle-treated TBI mice) versus 10.42±0.4 fmol per mg protein (DAPT-treated TBI mice); P<0.01), and APP carboxy-terminal fragments accumulated.

The subject of experiment [1] is TBI mice (controlled cortical impact). Description: Beam walk test (fine motor coordination) after CCI. It counts as in vivo, mouse. To be noted: for foot faults (beam walk): TBI mice, 50 steps. On the procedure: To test the effect of β-secretase on TBI outcome, the B-APP cleaving enzyme-1 (BACE1) Bace1^−/− knockout mouse was used. Bace1 is the initial rate-limiting enzyme for Aβ production. Bace1^−/− mice are unable to produce any species of Aβ (Cai et al., Nat. Neurosci. 4:233-4 (2001)), and the absence of Aβx-40 in brain homogenates by ELISA (0.1±0.09 fmol per mg protein) was confirmed. CCI surgery was performed, and the beam walk test was used to detect fine motor coordination aberrations (Fox et al., J. Neurotrauma 15:599-614 (1998)). This test examines the number of errors (foot faults) made by the right hind limb over 50 steps. The mice were trained on the test before injury, and the test was repeated on 1 day, 3 days, 7 days, 14 days, and 21 days after TBI. Injured Bace1^−/− mice made fewer foot faults at multiple time points, with a 38% final improvement over injured Bace1^+/+ mice (FIG. 4, P<0.001).
as §1
(§2) On the day after CCI, the first beam walk test was conducted. Vehicle-treated TBI mice made 50±0 foot faults and improved to 43±2 foot faults on the final day of testing (FIG. 9). […] Spatial learning with the Morris water maze was also tested.

For experiment [2] the test system is unchanged. Description: Morris water maze (spatial learning) after CCI. It counts as in vivo, mouse. On the procedure: A Morris water maze paradigm was used to assess spatial learning by training mice to locate a hidden, submerged platform using extramaze visual information (Fox et al., J. Neurotrauma 15:599-614 (1998)). The test was conducted 15-18 days after injury, and each mouse was tested for four trials per day for four consecutive days. Uninjured Bace1^+/+ mice were used as a behavioral control. Injured Bace1^+/+ mice had significant learning impairments on all 4 days of testing compared to uninjured Bace1^+/+ mice (P<0.01). Injured Bace1^−/− mice, however, improved rapidly, and on the final day of testing were indistinguishable from uninjured mice (FIG. 5, P<0.01). All groups had similar escape latencies when presented with a visual platform probe test (uninjured Bace1^+/+, 23.4±6.3 seconds; injured Bace1^+/+, 21.1±7.8 seconds; injured Bace1^−/−, 21.2±4.9 seconds).
as §1, §2

The test system is the same in experiment [3]. In words: MRI of brain lesion 21 days after CCI. The format is in vivo, mouse. The text has this:
Five mice in each TBI group were randomly chosen for T2-weighted magnetic resonance imaging (MRI) analysis at 21 days after trauma. […] This was confirmed by fixed brain tissue sections (FIG. 7). […] Total lesion volume was reduced by 30% in […] (FIG. 9, P<0.05).
(§3) The representative MRI images show a vehicle-treated TBI mouse with the brain lesion visible through 4 mm (8 mm×0.5 mm longitudinal sections) of tissue, whereas DAPT treatment results in damage through only 1.5 mm (3 mm×0.5 mm sections) (FIG. 13). […] The damage to the hippocampus was not as extensive as that seen in the Bacel study; however, cell loss in the CA1 region of mice after TBI was clearly visible (FIG. 16). This allowed quantification of cell loss in the hippocampus (FIG. 17). Neurons were stained with NeuN, a neuronal marker, and an unbiased stereology count was performed. TBI caused a 34% decrease in NeuN-positive cells in the CA1 region of the ipsilateral hippocampus (P<0.05). DAPT treatment attenuated this cell loss, resulting in a 10% reduction in CA1 neurons (P<0.05 versus vehicle-treated TBI mice).

Experiment [4] shares this test system. Description: Histological assessment of lesion volume and NeuN stereology count of CA1 neurons. It counts as in vivo, mouse.
Description: as §3

A further experiment deals with mouse model of stroke. To be noted: after ischemia and reperfusion; Arumugam et al. 2006; cited from earlier work.

Each structure is given as a SMILES string. “Also recorded” adds a separate entry of the source. A value given as a limit tells only on which side of the number the result lay.

Consider `C[C@H](NC(=O)Cc1cc(F)cc(F)c1)C(=O)N[C@H](C(=O)OC(C)(C)C)c1ccccc1` [DAPT, N-[N-(3,5-Difluorophenacetyl)-L-alanyl]-S-phenylglycine t-butyl ester], for which the Aβ levels reduced with γ-secretase (DAPT 30 mg per kg orally twice daily for 21 days, versus vehicle-treated TBI mice) is 25%. For the same compound, in the experiment on γ-secretase (DAPT-treated TBI mice), the APP carboxy-terminal fragments result is listed as “accumulated” and the Aβ concentration was 10.42±0.4 fmol per mg protein. In addition, in experiment [1] (21 days after injury), the “improvement in foot faults over vehicle-treated TBI mice” value amounted to 42% and the “foot faults (beam walk)” value turned out to be 25±5 foot faults. In addition, the “foot faults (beam walk)” value in experiment [1] (day after surgery) turned out to be 48±1 foot faults. For the same compound, the “recovery of fine motor coordination on beamwalk test” value in experiment [1] (after 21 days, in words) is given as “Recovery is improved”. For the same compound, the “escape latency, visible platform probe” value in experiment [2] (TBI mice) turned out to be 17.5 ± 3.7 s. For the same compound, the “spatial learning in Morris water maze” value in experiment [2] (TBI mice, 4 days of test, in words) is reported as “indistinguishable from sham-injured mice; also recorded: prevents these deficits”. In experiment [2] (sham-operated mice), the “escape latency, visible platform probe” value is 13.6 ± 3.4 s. Besides, in experiment [3] (injured mice, in words), the “lesion size by MRI” value is “substantially reduced lesion size”. The “depth of tissue through which damage is visible on MRI” value in experiment [3] (representative images, 0.5 mm sections) is given as 1.5 mm. In addition, the “tissue sparing (histology)” value in experiment [4] (H&E sections, in words) was “spared large areas of cortex and subcortical white matter tracts; also recorded: Subcortical white matter tracts are spared”. Further, the “reduction in CA1 neurons (NeuN-positive cells, ipsilateral hippocampus)” value in experiment [4] (TBI mice, stereology count) came to 10%. Moreover, the “neuronal populations in ipsilateral CA1 versus contralateral” value in experiment [4] (stereology cell counts, in words) is recorded as “This reduction is prevented”. The lesion volume entry in experiment [4] (versus vehicle control, in words) is on record as “reduced”. The lesion volume decreased in experiment [4] (versus vehicle-treated TBI mice) is listed as above 70%. In addition, in the experiment with mouse model of stroke, the infarct area entry was “reduced infarct area” and the neurological function result is listed as “improved neurological function”.
